# Values quoted from earlier work as cited in US10285971B2, “Formulations of water-soluble derivatives of vitamin E and soft gel compositions, concentrates and powders containing same” (VIRUN, INC., priority 2014, dated 2019).
row,Substance,HLB value
1,sucrose dipalmitate,7.4
2,sucrose monopalmitate,> 10
3,sucrose distearate,3
